Measurements taken from US12303523B2, “Method for treating dupuytren's disease” (Dale Biotech, LLC, priority 2019, dated 2025).
≈ marks a conversion by molar mass, not a printed value.

Columns and labels:
physchem = format: physicochemical
Protocol: Niclosamide ethanolamine salt (niclosamide) was dissolved and titrated (2-fold) in methanol to generate standard curves. The linear range of niclosamide quantification using UV spectrometry (333 nm) was established to be 0.006-0.1 mM. A suspension of niclosamide was prepared in H2O at a concentration of 32.7 mg/ml (100 mM) by vigorous vortexing. A stock solution of rhamnolipids were prepared in H2O at a concentration of 400 mg/ml and diluted appropriately prior to the addition of niclosamide in the presence or absence of 20% glycerol. Niclosamide was added to a final concentration of 10 mM. The solutions were vortexed vigorously, warmed at 37° C. for 5 minutes, vortexed vigorously, and then centrifuged at 17,000 RCF for 5 minutes to remove any large particulates. The supernatant of each sample was assayed for soluble niclosamide by diluting 1:10 to 1:100 in methanol and comparing to a niclosamide standard curve.

[1] = cited from earlier work
STAT3 = STAT3 (Homo sapiens, UniProt P40763); settings: Ren X, et al. ACS Med Chem Lett., 2010; cited from earlier work
NF-κB = settings: in vitro experiments; cited from earlier work

STAT3, sequence (P40763 whole entry, species assumed): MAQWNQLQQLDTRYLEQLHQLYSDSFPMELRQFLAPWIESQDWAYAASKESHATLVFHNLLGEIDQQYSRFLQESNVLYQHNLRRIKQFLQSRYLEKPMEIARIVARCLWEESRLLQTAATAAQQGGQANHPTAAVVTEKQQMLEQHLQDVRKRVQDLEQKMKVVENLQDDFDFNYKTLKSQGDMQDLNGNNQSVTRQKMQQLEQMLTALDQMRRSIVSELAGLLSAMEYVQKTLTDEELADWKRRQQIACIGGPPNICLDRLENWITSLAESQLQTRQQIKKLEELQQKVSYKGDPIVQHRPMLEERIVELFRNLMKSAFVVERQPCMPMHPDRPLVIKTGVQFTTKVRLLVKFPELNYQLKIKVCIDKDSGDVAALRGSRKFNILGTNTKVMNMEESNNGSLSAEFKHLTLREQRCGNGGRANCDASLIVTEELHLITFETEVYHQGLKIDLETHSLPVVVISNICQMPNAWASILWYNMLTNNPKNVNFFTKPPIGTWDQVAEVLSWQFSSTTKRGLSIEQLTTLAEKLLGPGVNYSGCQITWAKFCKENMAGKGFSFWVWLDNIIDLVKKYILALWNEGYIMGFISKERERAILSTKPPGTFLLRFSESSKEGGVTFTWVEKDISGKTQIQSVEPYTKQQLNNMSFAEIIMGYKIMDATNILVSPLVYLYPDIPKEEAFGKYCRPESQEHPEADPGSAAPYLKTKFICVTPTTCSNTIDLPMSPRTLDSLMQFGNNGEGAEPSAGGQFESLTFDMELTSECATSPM

SMILES | solubility at 5 min (physchem; 37 °C, water, thermodynamic from solid, Soluble Niclosamide mM, ±SD) [mM] | solubility in distilled water ([1]; distilled water, 20° C.) [µg/mL] | increase of solubility (physchem; 5 min) | solubility in DMSO ([1]; DMSO) | solubility in ethanol ([1]; ethanol) [µM] | solubility in organic solvents ([1]; ether, ethanol, chloroform, acetone and DMSO) | water solubility ([1]; water, 20° C.) [µg/mL] | inhibition of activation and transcriptional function of STAT3 (STAT3) | inhibition of NF-κB transcription, DNA binding, TNF-induced IκBα phosphorylation, p65 translocation, downstream gene expression (NF-κB)
O=C(Nc1ccc([N+](=O)[O-])cc1Cl)c1cc(Cl)ccc1O [Niclosamide ethanolamine, niclosamide ethanolamine] | 1.06 ± 0.053 (≈ 347 µg/mL) | 180 to 280 | – | – | – | – | – | – | –
O=C(Nc1ccc([N+](=O)[O-])cc1Cl)c1cc(Cl)ccc1O [Niclosamide] | – | – | more than 3 fold | up to 10 mM | 22000 (≈ 7200 µg/mL) | sparingly soluble | 5 to 8 | potently inhibits | inhibits
